Holding throughout (assay type): cell-based
Assay [1] relates to B16F10 (malignant melanoma). Nature of the assay: Antiproliferative activity (CCK-8 cell viability), B16F10. Particulars: Mus musculus, 72 h, read-out: Antiproliferative activity in cancerous cells, B16F10 (inhibition of cell growth); for inhibition at 3.3 µM: B16-F10, Compound concentration: 3.3 μM; for inhibition at 10 µM: B16-F10, Compound concentration: 10 μM. The method, boiled down:
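B16F10 melanoma cells grown in DMEM with 10% FBS were plated in 96-well plates at 2,000-5,000 cells/well. After attachment they were exposed to compound in medium for 72 h at 37° C. CCK-8 solution (10 μL) was then added, and after 4 h at 37° C absorbance was read at 450 nm.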

The test system of another assay is HeLa (cervical cancer). Briefly: Antiproliferative activity (CCK-8 cell viability), HeLa. Particulars: Homo sapiens, 72 h, read-out: Antiproliferative activity in cancerous cells, HELA (inhibition of cell growth); for inhibition at 3.3 µM: Compound concentration: 3.3 μM; for inhibition at 10 µM: Compound concentration: 10 μM. The method, boiled down:
(§1)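 Cells grown in DMEM (HepG2, SW480), MEM (HeLa) or F-12K (A549), each with 10% FBS, then exposed to compound at 3.3, 10 or 30 μM for 72 h at 37 °C. CCK-8 absorbance at 450 nm; viability expressed as percent of DMSO-treated cells, graded as growth inhibition bands.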

In assay [2] the test system is A431 (epidermoid carcinoma). Briefly: Antiproliferative activity (CCK-8 cell viability), A431. Particulars: Homo sapiens, 72 h, read-out: Antiproliferative activity in cancerous cells, A431 (inhibition of cell growth); for inhibition at 3.3 µM: A-431, Compound concentration: 3.3 μM; for inhibition at 10 µM: A-431, Compound concentration: 10 μM. The method, boiled down: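 A431 epidermoid carcinoma cells grown in DMEM with 10% FBS were plated at 2,000-5,000 cells/well in 96-well plates. After attachment they were exposed to compound at 3.3 μM, 10 μM, or 30 μM for 72 h at 37° C. Viability was then assessed by CCK-8 against DMSO vehicle-treated wells.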

The next assay has as its system SW480 (colon cancer). Nature of the assay: Antiproliferative activity (CCK-8 cell viability), SW480. The note with it: Homo sapiens, 72 h; for inhibition at 3.3 µM: Compound concentration: 3.3 μM; for inhibition at 3.3 µM / inhibition at 10 µM: read-out: Antiproliferative activity in cancerous cells, SW480 (inhibition of cell growth); for inhibition at 10 µM: Compound concentration: 10 μM; for inhibition at 30 µM: Compound concentration: 30 μM, read-out: Antiproliferative activity in cancerous cells, SW480. The method, boiled down: as §1

For another assay, the system named is HepG2 (liver cancer). Nature of the assay: Antiproliferative activity (CCK-8 cell viability), HepG2. Particulars: Homo sapiens, 72 h, read-out: Antiproliferative activity in cancerous cells, HepG2 (inhibition of cell growth); for inhibition at 3.3 µM: Compound concentration: 3.3 μM; for inhibition at 10 µM: Compound concentration: 10 μM. The method, boiled down:
as §1

For assay [3], the system named is MDA-MB-231 (breast cancer). Nature of the assay: Antiproliferative activity (CCK-8 cell viability), MDA-MB-231. The note with it: Homo sapiens, 72 h; for inhibition at 3.3 µM: Compound concentration: 3.3 μM; for inhibition at 3.3 µM / inhibition at 10 µM: read-out: Antiproliferative activity in cancerous cells, MDA-MB-231 (inhibition of cell growth); for inhibition at 10 µM: Compound concentration: 10 μM. The method, boiled down: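 MDA-MB-231 breast cancer cells, grown in DMEM with 10% FBS, were plated in 96-well plates at 2,000-5,000 cells/well. Once attached, they were exposed to compound and incubated at 37° C. for 72 h. Viability was then measured with CCK-8 (10 μL per well, 4 h at 37° C.) by absorbance at 450 nm, relative to DMSO vehicle wells.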

For assay [4], the system named is A549 (lung adenocarcinoma). Briefly: Antiproliferative activity (CCK-8 cell viability), A549. Particulars: Homo sapiens, 72 h; for inhibition at 3.3 µM: Compound concentration: 3.3 μM; for inhibition at 3.3 µM / inhibition at 10 µM: read-out: Antiproliferative activity in cancerous cells, A549 (inhibition of cell growth); for inhibition at 10 µM: Compound concentration: 10 μM. The method, boiled down: as §1

In patent publication US20260184663A1, “INDENE COMPOUNDS, PHARMACEUTICAL COMPOSITIONS THEREOF, AND THEIR THERAPEUTIC APPLICATIONS” (NucMito Pharmaceuticals co. Ltd., priority 2022, published 2026) one finds inhibition data, which are given here for 8 compounds.

SMILES strings stand for the structures. Where only a bound is given, the exact number is not on record here.

On to `CC1=C(CC(=O)O)c2cc(F)ccc2/C1=C\c1ccc(Oc2ccc(Cl)cc2Cl)cc1` [C66, (Z)-2-(1-(4-(2,4-Dichlorophenoxy)benzylidene)-5-fluoro-2-methyl-1H-inden-3-yl)acetic acid], for which the inhibition at 3.3 µM is less than 30% in assay [1]; not below 50% with HeLa (cervical cancer); not below 50% in assay [2]; less than 30% in the assay with SW480 (colon cancer); not below 50% in the assay on HepG2 (liver cancer); less than 30% in assay [3]. Moreover, the inhibition at 3.3 µM in assay [4] was in the range of 30 to 50%. Further, the inhibition at 10 µM was not below 50% in assay [1]; not below 50% in the assay with HeLa (cervical cancer); not below 50% in assay [2]; less than 30% in the assay with SW480 (colon cancer); not below 50% in the assay on HepG2 (liver cancer); not below 50% in assay [3]. The inhibition at 10 µM in assay [4] is not below 50%.
Consider `CC1=C(CC(=O)O)c2ccc(Cl)cc2/C1=C\c1ccc(Oc2ccc(F)cc2)cc1` [C67, (Z)-2-(6-Chloro-1-(4-(4-fluorophenoxy)benzylidene)-2-methyl-1H-inden-3-yl)acetic acid], for which the inhibition at 3.3 µM was less than 30% in assay [1]; less than 30% in the assay on HeLa (cervical cancer); 30 to 50% in assay [2]; 30 to 50% in the assay with SW480 (colon cancer); 30 to 50% with HepG2 (liver cancer); less than 30% in assay [3]. The inhibition at 3.3 µM in assay [4] was less than 30%. Also, the inhibition at 10 µM in assay [1] was less than 30%; in the assay on HeLa (cervical cancer) it was less than 30%; in assay [2], not below 50%; in the assay with SW480 (colon cancer), 30 to 50%; in the assay with HepG2 (liver cancer), not below 50%; in assay [3] it was not below 50%. The inhibition at 10 µM in assay [4] was not below 50%.
Consider `CC1=C(CC(=O)O)c2cc(F)ccc2/C1=C\c1ccc(Oc2ccc(F)cc2Cl)cc1` [C68, (Z)-2-(1-(4-(2-Chloro-4-fluorophenoxy)benzylidene)-5-fluoro-2-methyl-1H-inden-3-yl)acetic acid], for which the inhibition at 3.3 µM in assay [1] was less than 30%; in the assay with HeLa (cervical cancer), less than 30%; in assay [2] it was 30 to 50%; in the assay on SW480 (colon cancer), not below 50%; in the assay with HepG2 (liver cancer), less than 30%; in assay [3], less than 30%. In assay [4], the inhibition at 3.3 µM is less than 30%. Besides, the inhibition at 10 µM in assay [1] is less than 30%; with HeLa (cervical cancer), less than 30%; in assay [2], not below 50%; in the assay with SW480 (colon cancer) it was not below 50%; with HepG2 (liver cancer), not below 50%; in assay [3], less than 30%. For the same compound, in assay [4], the inhibition at 10 µM was not below 50%.
`COc1ccc(Oc2ccc(/C=C3/C(C)=C(CC(=O)O)c4cc(F)ccc43)cc2)cc1Cl` [C70, (Z)-2-(1-(4-(3-Chloro-4-methoxyphenoxy)benzylidene)-5-fluoro-2-methyl-1H-inden-3-yl)acetic acid]: the inhibition at 3.3 µM is less than 30% in assay [1]; less than 30% in the assay with HeLa (cervical cancer); not below 50% in assay [2]; less than 30% in the assay with SW480 (colon cancer); less than 30% in the assay on HepG2 (liver cancer); less than 30% in assay [3]. Further, the inhibition at 3.3 µM in assay [4] was less than 30%. Further, the inhibition at 10 µM is 30 to 50% in assay [1]; not below 50% with HeLa (cervical cancer); not below 50% in assay [2]; less than 30% with SW480 (colon cancer); not below 50% with HepG2 (liver cancer); less than 30% in assay [3]. The inhibition at 10 µM in assay [4] is 30 to 50%. The inhibition at 30 µM with SW480 (colon cancer) is less than 30%; in assay [3] (Compound concentration: 30 μM, read-out: Antiproliferative activity in cancerous cells, MDA-MB-231), 30 to 50%.
On to `COc1cc(Oc2ccc(/C=C3/C(C)=C(CC(=O)O)c4cc(F)ccc43)cc2)ccc1Cl` [C71, (Z)-2-(1-(4-(4-Chloro-3-methoxyphenoxy)benzylidene)-5-fluoro-2-methyl-1H-inden-3-yl)acetic acid], for which the inhibition at 3.3 µM in assay [1] was not below 50%; in the assay on HeLa (cervical cancer), 30 to 50%; in assay [2], not below 50%; in the assay on SW480 (colon cancer), less than 30%; in the assay on HepG2 (liver cancer) it was not below 50%; in assay [3] it was less than 30%. In addition, in assay [4], the inhibition at 3.3 µM was less than 30%. Moreover, the inhibition at 10 µM in assay [1] is not below 50%; in the assay on HeLa (cervical cancer), not below 50%; in assay [2], not below 50%; in the assay on SW480 (colon cancer), not below 50%; in the assay with HepG2 (liver cancer), not below 50%; in assay [3], 30 to 50%. Further, the inhibition at 10 µM in assay [4] lay within 30 to 50%.
`COc1ccc2c(c1)C(CC(=O)O)=C(C)/C2=C/c1ccc(Oc2ccc(Cl)cc2)cc1` [C72, (Z)-2-(1-(4-(4-Chlorophenoxy)benzylidene)-5-methoxy-2-methyl-1H-inden-3-yl)acetic acid]: the inhibition at 3.3 µM in assay [1] was not below 50%; with HeLa (cervical cancer), not below 50%; in assay [2] it was 30 to 50%; in the assay on SW480 (colon cancer), less than 30%; with HepG2 (liver cancer) it was less than 30%; in assay [3], 30 to 50%. The inhibition at 3.3 µM in assay [4] was less than 30%. Further, the inhibition at 10 µM in assay [1] is not below 50%; with HeLa (cervical cancer), not below 50%; in assay [2] it was 30 to 50%; in the assay with SW480 (colon cancer), less than 30%; with HepG2 (liver cancer), less than 30%; in assay [3], 30 to 50%. Also, in assay [4], the inhibition at 10 µM was less than 30%. The inhibition at 30 µM in the assay on SW480 (colon cancer) was less than 30%; in assay [4] (Compound concentration: 30 μM, read-out: Antiproliferative activity in cancerous cells, A549) it was 30 to 50%.
Regarding `COc1ccc2c(c1)C(CC(=O)O)=C(C)/C2=C/c1ccc(Oc2cccc(Cl)c2)cc1` [C73, (Z)-2-(1-(4-(3-Chlorophenoxy)benzylidene)-5-methoxy-2-methyl-1H-inden-3-yl)acetic acid], the inhibition at 3.3 µM in assay [1] is 30 to 50%; in the assay on HeLa (cervical cancer), 30 to 50%; in assay [2], 30 to 50%; in the assay with SW480 (colon cancer) it was less than 30%; in the assay with HepG2 (liver cancer), less than 30%; in assay [3], less than 30%. For the same compound, the inhibition at 3.3 µM in assay [4] is less than 30%. Moreover, the inhibition at 10 µM was not below 50% in assay [1]; not below 50% in the assay on HeLa (cervical cancer); not below 50% in assay [2]; less than 30% in the assay with SW480 (colon cancer); less than 30% in the assay with HepG2 (liver cancer); 30 to 50% in assay [3]. Moreover, the inhibition at 10 µM in assay [4] is less than 30%. Moreover, the inhibition at 30 µM in the assay with SW480 (colon cancer) was in the range of 30 to 50%.
Regarding `COc1ccc2c(c1)C(CC(=O)O)=C(C)/C2=C/c1ccc(Oc2ccc(Cl)cc2)cc1C` [C74, (Z)-2-(1-(4-(4-Chlorophenoxy)-2-methylbenzylidene)-5-methoxy-2-methyl-1H-inden-3-yl)acetic acid], the inhibition at 3.3 µM is not below 50% in assay [1]; less than 30% in the assay with HeLa (cervical cancer); not below 50% in assay [2]; less than 30% with SW480 (colon cancer); less than 30% in the assay with HepG2 (liver cancer); not below 50% in assay [3]. Further, the inhibition at 3.3 µM in assay [4] fell in the range of 30 to 50%. Besides, the inhibition at 10 µM was not below 50% in assay [1]; not below 50% in the assay on HeLa (cervical cancer); not below 50% in assay [2]; 30 to 50% with SW480 (colon cancer); not below 50% in the assay on HepG2 (liver cancer); not below 50% in assay [3]. In addition, the inhibition at 10 µM in assay [4] is not below 50%.
